The series deals with rodent lifetime carcinogenesis bioassay, tumor incidence TD50. Put plainly: chronic cancer bioassays in animals – CPDB, compiled studies (AID 1745844).

In PubChem BioAssay AID1745844 (Carcinogenic Potency Database (CPDB), 2022) one finds TD50 and carcinogen call data, which are given here for 6 compounds.

Active and inactive are the calls of the source. The rule behind the calls is not given here.

By TD50 is commonly meant the dose at which the toxic effect under study appears in half of the subjects. For the compound `CN(C)c1ccc(Cc2ccc(N(C)C)cc2)cc1`, the TD50 is 280 mg/kg/day (mouse, strain B6C3F1, females, in feed, site: any site (literature study), lesion: several types, types named in the paper, dosed 78 weeks, study length 91 weeks); 207 mg/kg/day (mouse, strain B6C3F1, females, in feed, site: liver, lesion: hepatocellular adenoma + hepatocellular carcinoma + neoplastic nodule, dosed 78 weeks, study length 91 weeks); 207 mg/kg/day (mouse, strain B6C3F1, females, in feed, site: liver, lesion: hepatocellular adenoma + hepatocellular carcinoma, dosed 78 weeks, study length 91 weeks); 1080 mg/kg/day (mouse, strain B6C3F1, females, in feed, site: lung, lesion: alveolar/bronchiolar adenoma + alveolar/bronchiolar carcinoma, dosed 78 weeks, study length 91 weeks); 367 mg/kg/day (inactive) (mouse, strain B6C3F1, males, in feed, site: any site (literature study), lesion: several types, types named in the paper, dosed 78 weeks, study length 91 weeks); 558 mg/kg/day (mouse, strain B6C3F1, males, in feed, site: liver, lesion: hepatocellular adenoma + hepatocellular carcinoma + neoplastic nodule, dosed 78 weeks, study length 91 weeks). Besides, the TD50 is 1410 mg/kg/day (mouse, strain B6C3F1, males, in feed, site: lung, lesion: alveolar/bronchiolar adenoma + alveolar/bronchiolar carcinoma, dosed 78 weeks, study length 91 weeks); 41.7 mg/kg/day (rat, strain Fischer 344, females, in feed, site: any site (literature study), lesion: several types, types named in the paper, dosed 59 weeks, study length 104 weeks); 203 mg/kg/day (rat, strain Fischer 344, females, in feed, site: liver, lesion: hepatocellular adenoma + hepatocellular carcinoma + neoplastic nodule, dosed 59 weeks, study length 104 weeks); 203 mg/kg/day (rat, strain Fischer 344, females, in feed, site: liver, lesion: neoplastic nodule, dosed 59 weeks, study length 104 weeks); 16.4 mg/kg/day (rat, strain Fischer 344, females, in feed, site: thyroid gland, lesion: follicular-cell adenoma + follicular-cell carcinoma, dosed 59 weeks, study length 104 weeks); 27.7 mg/kg/day (rat, strain Fischer 344, females, in feed, site: thyroid gland, lesion: follicular-cell carcinoma, dosed 59 weeks, study length 104 weeks). Besides, the TD50 (rat, strain Fischer 344, males, in feed, site: any site (literature study), lesion: several types, types named in the paper, dosed 59 weeks, study length 104 weeks) worked out at 42.9 mg/kg/day; the TD50 (rat, strain Fischer 344, males, in feed, site: thyroid gland, lesion: follicular-cell adenoma + follicular-cell carcinoma, dosed 59 weeks, study length 104 weeks) was 16.5 mg/kg/day; the TD50 (rat, strain Fischer 344, males, in feed, site: thyroid gland, lesion: follicular-cell carcinoma, dosed 59 weeks, study length 104 weeks) was 28.6 mg/kg/day.
In the case of `N`, the carcinogen call (mouse, strain C3H (MTV+), females, in drinking water, site: mammary gland, lesion: adenocarcinoma, dosed 104 weeks, study length 104 weeks) is “negative (inactive)” and the carcinogen call (mouse, strain Swiss, females, in drinking water, site: lung, lesion: several types, types named in the paper, dosed 119 weeks, study length 121 weeks) is “negative (inactive)”. Besides, the TD50 runs as follows: (mouse, strain Swiss, males, in drinking water, site: liver, lesion: several types, types named in the paper, dosed 120 weeks, study length 124 weeks) 26700 mg/kg/day; (mouse, strain Swiss, males, in drinking water, site: lung, lesion: adenocarcinoma, dosed 120 weeks, study length 124 weeks) 7330 mg/kg/day (inactive); (mouse, strain Swiss, males, in drinking water, site: lung, lesion: several types, types named in the paper, dosed 120 weeks, study length 124 weeks) 15300 mg/kg/day (inactive).
Regarding `Cc1ccc(NC(N)=O)cc1`, the carcinogen call was “negative (inactive)” (mouse, strain C57BL/6, females, in feed, site: liver, lesion: hepatocellular carcinoma, dosed 52 weeks, study length 69 weeks); “negative (inactive)” (mouse, strain C57BL/6, females, in feed, site: lung, lesion: alveolar/bronchiolar adenoma, dosed 52 weeks, study length 69 weeks); “negative (inactive)” (mouse, strain C57BL/6, males, in feed, site: lung, lesion: alveolar/bronchiolar adenoma, dosed 52 weeks, study length 69 weeks); “negative (inactive)” (rat, strain Fischer 344, females, in feed, site: liver, lesion: one or several types, types not named, dosed 52 weeks, study length 69 weeks). The TD50 was 265 mg/kg/day (mouse, strain C57BL/6, males, in feed, site: all sites, lesion: malignant lymphoma, histiocytic type, dosed 52 weeks, study length 69 weeks); 206 mg/kg/day (mouse, strain C57BL/6, males, in feed, site: all sites, lesion: malignant lymphoma, dosed 52 weeks, study length 69 weeks); 722 mg/kg/day (inactive) (mouse, strain C57BL/6, males, in feed, site: liver, lesion: hepatocellular carcinoma, dosed 52 weeks, study length 69 weeks); 626 mg/kg/day (mouse, strain C57BL/6, males, in feed, site: mesenteric lymph node, lesion: malignant lymphoma, histiocytic type, dosed 52 weeks, study length 69 weeks); 441 mg/kg/day (mouse, strain C57BL/6, males, in feed, site: multiple organs, lesion: malignant lymphoma, histiocytic type, dosed 52 weeks, study length 69 weeks); 699 mg/kg/day (inactive) (rat, strain Fischer 344, males, in feed, site: liver, lesion: hepatocellular carcinoma, dosed 52 weeks, study length 69 weeks).
For the compound `CC(I)C1OCC(CO)O1` (centres undefined), the TD50 reads like this: (mouse, strain B6C3F1, females, by gavage, site: Harderian gland + pituitary gland, anterior, lesion: adenoma, NOS + carcinoma, NOS, dosed 103 weeks, study length 105 weeks) 92.4 mg/kg/day; (mouse, strain B6C3F1, females, by gavage, site: Harderian gland, lesion: adenoma, NOS + carcinoma, NOS, dosed 103 weeks, study length 105 weeks) 263 mg/kg/day; (mouse, strain B6C3F1, females, by gavage, site: any site (literature study), lesion: several types, types named in the paper, dosed 103 weeks, study length 105 weeks) 172 mg/kg/day; (mouse, strain B6C3F1, females, by gavage, site: forestomach, lesion: squamous-cell papilloma, dosed 103 weeks, study length 105 weeks) 608 mg/kg/day; (mouse, strain B6C3F1, females, by gavage, site: liver, lesion: hepatocellular adenoma + hepatocellular carcinoma + neoplastic nodule, dosed 103 weeks, study length 105 weeks) 373 mg/kg/day; (mouse, strain B6C3F1, females, by gavage, site: liver, lesion: hepatocellular adenoma + hepatocellular carcinoma, dosed 103 weeks, study length 105 weeks) 373 mg/kg/day. The TD50 by setting is: (mouse, strain B6C3F1, females, by gavage, site: liver, lesion: hepatocellular adenoma, dosed 103 weeks, study length 105 weeks) 471 mg/kg/day; (mouse, strain B6C3F1, females, by gavage, site: lung, lesion: alveolar/bronchiolar adenoma + alveolar/bronchiolar carcinoma, dosed 103 weeks, study length 105 weeks) 2740 mg/kg/day; (mouse, strain B6C3F1, females, by gavage, site: pituitary gland, anterior, lesion: adenoma, NOS, dosed 103 weeks, study length 105 weeks) 138 mg/kg/day; (mouse, strain B6C3F1, males, by gavage, site: liver, lesion: hepatocellular adenoma + hepatocellular carcinoma + neoplastic nodule, dosed 103 weeks, study length 104 weeks) 1100 mg/kg/day; (mouse, strain B6C3F1, males, by gavage, site: lung, lesion: alveolar/bronchiolar adenoma + alveolar/bronchiolar carcinoma, dosed 103 weeks, study length 104 weeks) 2410 mg/kg/day; (rat, strain Fischer 344, females, by gavage, site: any site (literature study), lesion: several types, types named in the paper, dosed 103 weeks, study length 104 weeks) 214 mg/kg/day (inactive). Besides, the TD50 by setting is: (rat, strain Fischer 344, females, by gavage, site: liver, lesion: hepatocellular adenoma + hepatocellular carcinoma + neoplastic nodule, dosed 103 weeks, study length 104 weeks) 2490 mg/kg/day; (rat, strain Fischer 344, males, by gavage, site: any site (literature study), lesion: several types, types named in the paper, dosed 103 weeks, study length 104 weeks) 52.1 mg/kg/day; (rat, strain Fischer 344, males, by gavage, site: liver, lesion: hepatocellular adenoma + hepatocellular carcinoma + neoplastic nodule, dosed 103 weeks, study length 104 weeks) 571 mg/kg/day; (rat, strain Fischer 344, males, by gavage, site: multiple organs + thyroid gland, lesion: mononuclear-cell leukemia + follicular-cell carcinoma, dosed 103 weeks, study length 104 weeks) 84.1 mg/kg/day; (rat, strain Fischer 344, males, by gavage, site: multiple organs, lesion: mononuclear-cell leukemia, dosed 103 weeks, study length 104 weeks) 101 mg/kg/day; (rat, strain Fischer 344, males, by gavage, site: nasal cavity, lesion: adenoma, NOS, dosed 103 weeks, study length 104 weeks) 1210 mg/kg/day. The TD50 by setting is: (rat, strain Fischer 344, males, by gavage, site: testis, lesion: interstitial-cell tumor, dosed 103 weeks, study length 104 weeks) 40.6 mg/kg/day; (rat, strain Fischer 344, males, by gavage, site: thyroid gland, lesion: follicular-cell carcinoma, dosed 103 weeks, study length 104 weeks) 280 mg/kg/day. In addition, the carcinogen call (mouse, strain B6C3F1, males, by gavage, site: any site (literature study), lesion: several types, types named in the paper, dosed 103 weeks, study length 104 weeks) is “negative (inactive)”.
On to `C/C=C(\C)C(=O)O[C@@H]1CCN2CC=C(COC(=O)[C@](O)(C(C)C)[C@H](C)O)[C@H]12`, for which the TD50 (rat, strain ACI, males, i.p., site: any site (literature study), lesion: several types, types named in the paper, dosed 56 weeks, study length 92 weeks) is 4.5 mg/kg/day and the TD50 (rat, strain ACI, males, i.p., site: liver, lesion: several types, types named in the paper, dosed 56 weeks, study length 92 weeks) was 1.91 mg/kg/day.
Take `C/C=C/C=C/C=O`: the TD50 by setting is: (mouse, strain B6C3F1, females, by gavage, site: forestomach, lesion: squamous-cell carcinoma + squamous-cell papilloma, dosed 104 weeks, study length 104 weeks) 129 mg/kg/day; (mouse, strain B6C3F1, females, by gavage, site: forestomach, lesion: squamous-cell carcinoma, dosed 104 weeks, study length 104 weeks) 580 mg/kg/day; (mouse, strain B6C3F1, females, by gavage, site: forestomach, lesion: squamous-cell papilloma, dosed 104 weeks, study length 104 weeks) 165 mg/kg/day; (mouse, strain B6C3F1, females, by gavage, site: skin, lesion: fibrosarcoma + fibrous histiocytoma, dosed 104 weeks, study length 104 weeks) 218 mg/kg/day; (mouse, strain B6C3F1, males, by gavage, site: any site (literature study), lesion: several types, types named in the paper, dosed 104 weeks, study length 104 weeks) 279 mg/kg/day; (mouse, strain B6C3F1, males, by gavage, site: forestomach, lesion: squamous-cell carcinoma + squamous-cell papilloma, dosed 104 weeks, study length 104 weeks) 279 mg/kg/day. The TD50 reads like this: (mouse, strain B6C3F1, males, by gavage, site: forestomach, lesion: squamous-cell papilloma, dosed 104 weeks, study length 104 weeks) 354 mg/kg/day; (mouse, strain B6C3F1, males, by gavage, site: liver, lesion: hepatocellular adenoma + hepatoblastoma + hepatocellular carcinoma, dosed 104 weeks, study length 104 weeks) 211 mg/kg/day; (mouse, strain B6C3F1, males, by gavage, site: lung, lesion: alveolar/bronchiolar adenoma + alveolar/bronchiolar carcinoma, dosed 104 weeks, study length 104 weeks) 1980 mg/kg/day; (mouse, strain B6C3F1, males, by gavage, site: tongue, lesion: squamous-cell carcinoma, dosed 104 weeks, study length 104 weeks) 2080 mg/kg/day; (rat, strain Fischer 344, females, by gavage, site: any site (literature study), lesion: several types, types named in the paper, dosed 104 weeks, study length 104 weeks) 112 mg/kg/day; (rat, strain Fischer 344, females, by gavage, site: forestomach, lesion: squamous-cell papilloma, dosed 104 weeks, study length 104 weeks) 102 mg/kg/day. Moreover, the TD50 runs as follows: (rat, strain Fischer 344, males, by gavage, site: adrenal medulla, lesion: pheochromocytoma, malignant, dosed 104 weeks, study length 104 weeks) 415 mg/kg/day; (rat, strain Fischer 344, males, by gavage, site: any site (literature study), lesion: several types, types named in the paper, dosed 104 weeks, study length 104 weeks) 107 mg/kg/day; (rat, strain Fischer 344, males, by gavage, site: forestomach, lesion: squamous-cell carcinoma + squamous-cell papilloma, dosed 104 weeks, study length 104 weeks) 44.7 mg/kg/day; (rat, strain Fischer 344, males, by gavage, site: forestomach, lesion: squamous-cell papilloma, dosed 104 weeks, study length 104 weeks) 46.1 mg/kg/day.
